# Test results reported in patent publication US20080090734A1, “DRUG SCREENING AND TARGET IDENTIFICATION USING SPR IMAGING OF TARGET PROTEIN ARRAYS” (The Trustees of California State University, priority 2006, published 2008).
# Columns and labels:
# Assay in all cases: Antibiotic susceptibility profile
# Assay type in all cases: cell-based, Acinetobacter baumannii
# Set-up in all cases: key: Resistance; Intermediate; Susceptible
# [1] = system: A. baumannii clinical isolate LAC 01
# Description: (§1) We obtained over thirty clinical isolates of A. baumannii from nosocomial infections in New York City and Los Angeles. […] Only antibiotics with breakpoints for A. baumannii were used. […] Isolates LA 01 to 20 were acquired from Los Angels County while NY-A to NY-H were obtained from New York City.
# (§2) Antibiotic susceptibility profiles of clinical isolates of A. baumannii and reference strains. R, I, and S denote Resistance, Intermediate and Susceptible, respectively. Genetic Profiling of Clinical Isolates of A. baumannii
# [2] = system: A. baumannii clinical isolate LAC 02
# Description: as §1, §2
# [3] = system: A. baumannii clinical isolate LAC 03
# Description: as §1, §2
# [4] = system: A. baumannii clinical isolate LAC 04
# Description: as §1, §2
# [5] = system: A. baumannii clinical isolate LAC 05
# Description: as §1, §2
# [6] = system: A. baumannii clinical isolate LAC 06
# Description: as §1, §2
# [7] = system: A. baumannii clinical isolate LAC 07
# Description: as §1, §2
# [8] = system: A. baumannii clinical isolate LAC 08
# Description: as §1, §2
# [9] = system: A. baumannii clinical isolate LAC 09
# Description: as §1, §2
# [10] = system: A. baumannii clinical isolate LAC 10
# Description: as §1, §2
# [11] = system: A. baumannii clinical isolate LAC 11
# Description: as §1, §2
# [12] = system: A. baumannii clinical isolate LAC 12
# Description: as §1, §2
# [13] = system: A. baumannii clinical isolate LAC 13
# Description: as §1, §2
# [14] = system: A. baumannii clinical isolate LAC 14
# Description: as §1, §2
# [15] = system: A. baumannii clinical isolate LAC 15
# Description: as §1, §2
# [16] = system: A. baumannii clinical isolate LAC 16
# Description: as §1, §2
# [17] = system: A. baumannii clinical isolate LAC 17
# Description: as §1, §2
# [18] = system: A. baumannii clinical isolate LAC 18
# Description: as §1, §2
# [19] = system: A. baumannii clinical isolate LAC 19
# Description: as §1, §2
# [20] = system: A. baumannii clinical isolate LAC 20
# Description: as §1, §2
# [21] = system: A. baumannii clinical isolate NY A
# Description: as §1, §2
# [22] = system: A. baumannii clinical isolate NY B
# Description: as §1, §2
# [23] = system: A. baumannii clinical isolate NY C
# Description: as §1, §2
# [24] = system: A. baumannii clinical isolate NY D
# Description: as §1, §2
# [25] = system: A. baumannii clinical isolate NY E
# Description: as §1, §2
# [26] = system: A. baumannii clinical isolate NY F
# Description: as §1, §2
# [27] = system: A. baumannii clinical isolate NY G
# Description: as §1, §2
# [28] = system: A. baumannii clinical isolate NY H
# Description: as §1, §2
# [29] = system: A. baumannii reference strain 15839; conditions: strain 15839 (ATCC)
# Description: as §1, §2
# [30] = system: A. baumannii reference strain 17978; conditions: strain 17978 (ATCC)
# Description: as §1, §2
# [31] = system: A. baumannii reference strain 19606; conditions: strain 19606 (ATCC)
# Description: as §1, §2
# [32] = system: A. baumannii reference strain AYE
# Description: as §1, §2
# [33] = system: A. baumannii reference strain SDF
# Description: as §1, §2
Structure (SMILES),Antibiotic susceptibility [1],Antibiotic susceptibility [2],Antibiotic susceptibility [3],Antibiotic susceptibility [4],Antibiotic susceptibility [5],Antibiotic susceptibility [6],Antibiotic susceptibility [7],Antibiotic susceptibility [8],Antibiotic susceptibility [9],Antibiotic susceptibility [10],Antibiotic susceptibility [11],Antibiotic susceptibility [12],Antibiotic susceptibility [13],Antibiotic susceptibility [14],Antibiotic susceptibility [15],Antibiotic susceptibility [16],Antibiotic susceptibility [17],Antibiotic susceptibility [18],Antibiotic susceptibility [19],Antibiotic susceptibility [20],also measured
"CC(C)(O/N=C(\C(=O)N[C@@H]1C(=O)N2C(C(=O)[O-])=C(C[n+]3ccccc3)CS[C@H]12)c1csc(N)n1)C(=O)O [CAZ, Ceftazidime]",R,R,R,R,I,S,R,I,R,R,R,R,R,R,R,R,R,R,R,R,Antibiotic susceptibility [21]: R; Antibiotic susceptibility [22]: R; Antibiotic susceptibility [23]: R; Antibiotic susceptibility [24]: R; Antibiotic susceptibility [25]: R; Antibiotic susceptibility [26]: R; Antibiotic susceptibility [27]: R; Antibiotic susceptibility [28]: R; Antibiotic susceptibility [29]: R; Antibiotic susceptibility [30]: S; Antibiotic susceptibility [31]: S; Antibiotic susceptibility [32]: R; Antibiotic susceptibility [33]: S
"CO/N=C(\C(=O)N[C@@H]1C(=O)N2C(C(=O)O)=C(CSc3nc(=O)c(=O)[nH]n3C)CS[C@H]12)c1csc(N)n1 [CRO, Ceftriaxone]",R,R,R,R,I,R,R,I,R,R,R,R,R,R,R,R,R,R,R,R,Antibiotic susceptibility [21]: R; Antibiotic susceptibility [22]: R; Antibiotic susceptibility [23]: R; Antibiotic susceptibility [24]: R; Antibiotic susceptibility [25]: I; Antibiotic susceptibility [26]: R; Antibiotic susceptibility [27]: R; Antibiotic susceptibility [28]: R; Antibiotic susceptibility [29]: R; Antibiotic susceptibility [30]: S; Antibiotic susceptibility [31]: I; Antibiotic susceptibility [32]: R; Antibiotic susceptibility [33]: I
"CO/N=C(\C(=O)N[C@@H]1C(=O)N2C(C(=O)O)=C(COC(C)=O)CS[C@H]12)c1csc(N)n1 [CTX, Cefotaxime]",R,R,R,R,I,R,R,I,R,R,R,R,R,R,R,R,R,R,R,R,Antibiotic susceptibility [21]: R; Antibiotic susceptibility [22]: R; Antibiotic susceptibility [23]: R; Antibiotic susceptibility [24]: R; Antibiotic susceptibility [25]: R; Antibiotic susceptibility [26]: R; Antibiotic susceptibility [27]: R; Antibiotic susceptibility [28]: R; Antibiotic susceptibility [29]: R; Antibiotic susceptibility [30]: S; Antibiotic susceptibility [31]: I; Antibiotic susceptibility [32]: R; Antibiotic susceptibility [33]: S
